Experimental data as given in patent US8865756B2, “Inhibitors of HCV NS5A” (Presidio Pharmaceuticals, Inc., priority 2008, dated 2014).

tested on: HCV 1b_Huh-Luc/Neo-ET cell line persistently expressing a bicistronic genotype 1b replicon in Huh 7 cells; test: HCV replicon assay (luciferase readout); type: cell-based; conditions: Hepatitis C virus, Huh-7, 72 h, read-out: Inhibition of HCV genotype 1b
Outline: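 EC50, determined repeatedly, comes from a four-parameter logistic fit of luciferase signal as percent of untreated control. Readout follows 72 h compound exposure, in triplicate, of the HCV 1b_Huh-Luc/Neo-ET replicon line.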

| SMILES | EC50 [nM] |
| --- | --- |
| C[C@@H](NC(=O)C1CC1)C(=O)N1CCC[C@H]1c1ncc(C#Cc2ccc(-c3cnc([C@@H]4CCCN4C(=O)[C@@H](C)NC(=O)C4CC4)[nH]3)cc2)[nH]1 [Compound 111] | 1 to 9.9 |
| COC(=O)N[C@@H](C(=O)N1CCC[C@H]1c1ncc(-c2ccc(C#Cc3ccc(C(=O)NC[C@@H]4CCCN4C(=O)[C@H](NC(=O)N4CCOCC4)c4ccccc4)cc3)cc2)[nH]1)c1ccccc1 [Compound 235] | < 1 |
| CN1CCN(C(=O)N[C@@H](C(=O)N2CCC[C@H]2c2ncc(C#Cc3ccc(-c4cnc([C@@H]5CCCN5C(=O)[C@H](NC(=O)N5CCN(C)CC5)c5ccccc5)[nH]4)cc3)[nH]2)c2ccccc2)CC1 [Compound 118] | 10 to 999 |
| COC(=O)N[C@@H](C(=O)N1CCC[C@H]1c1ncc(-c2ccc(C#Cc3ccc(-c4cnc([C@@H]5CCCN5C(=O)[C@H](NC(=O)N5CCC[C@H]5C)c5ccccc5)[nH]4)cc3)cc2)[nH]1)c1ccccc1 [Compound 262] | < 1 |
| CC(C)[C@H](NC(=O)N1CCC(C)(O)CC1)C(=O)N1CCC[C@H]1c1ncc(-c2ccc(C#Cc3ccc(-c4cnc([C@@H]5CCCN5C(=O)[C@@H](NC(=O)N5CCC(C)(O)CC5)C(C)C)[nH]4)cc3)cc2)[nH]1 [Compound 966] | 10 to 999 |
| COC(=O)N[C@@H](Cc1c[nH]c2ccccc12)C(=O)N1CCC[C@H]1c1ncc(-c2ccc(C#Cc3ccc4nc([C@@H]5CCCN5C(=O)[C@H](Cc5c[nH]c6ccccc56)NC(=O)OC)[nH]c4c3)cc2)[nH]1 [Compound 1057] | < 1 |
| COC(=O)N[C@@H](C(=O)N1CCC[C@H]1c1ncc(-c2ccc(C#Cc3ccc4nc([C@@H]5CCCN5C(=O)[C@H](NC(=O)OC)c5ccccc5)[nH]c4c3)cc2)[nH]1)c1ccccc1 [Compound 800] | < 1 |
| COC(=O)N[C@@H](C(=O)N1CCC[C@H]1c1ncc(-c2ccc(C#Cc3ccc(-c4cnc([C@@H]5CCCN5C(=O)[C@@H](c5ccccc5)N5CCOCC5)[nH]4)cc3)cc2)[nH]1)c1ccccc1 [Compound 185] | < 1 |
| CN(C)C(=O)N[C@@H](C(=O)N1CCC[C@H]1c1ncc(C#Cc2ccc(C#Cc3cnc([C@@H]4CCCN4C(=O)[C@H](NC(=O)N(C)C)c4ccccc4)[nH]3)cc2)[nH]1)c1ccccc1 [Compound 308] | < 1 |
| COC(=O)N[C@H](C(=O)N1CCC[C@H]1c1nc2ccc(C#Cc3ccc(-c4cnc([C@@H]5CCCN5C(=O)[C@H](c5ccccc5)N(C)C)[nH]4)cc3)cc2[nH]1)C(C)C [Compound 864] | < 1 |
| CC[C@H](NC(=O)OC)C(=O)N1CCC[C@H]1c1ncc(-c2ccc(C#Cc3ccc4nc([C@@H]5CCCN5C(=O)[C@H](CC)NC(=O)OC)[nH]c4c3)cc2)[nH]1 [Compound 1036] | < 1 |
| COC(=O)N[C@@H](C(=O)N(C)[C@@H](C)c1ncc(-c2ccc(C#Cc3ccc(-c4cnc([C@@H]5CCCN5C(=O)[C@H](NC(=O)OC)c5ccccc5)[nH]4)cc3)cc2)[nH]1)c1ccccc1 [Compound 274] | < 1 |
| COC(=O)NC(C(=O)N1CCC[C@H]1c1ncc(-c2ccc(C#Cc3ccc(-c4cnc([C@@H]5CCCN5C(=O)[C@H](NC(=O)OC)[C@H](C)O)[nH]4)cc3)cc2)[nH]1)[C@H](C)O (stereo partly drawn) [Compound 978] | 10 to 999 |
| O=C(N[C@@H](C(=O)N1CCC[C@H]1C(=O)NCc1ccc(C#Cc2ccc(-c3cnc([C@@H]4CCCN4C(=O)[C@H](NC(=O)C4CC4)c4ccccc4)[nH]3)cc2)cc1)c1ccccc1)C1CC1 [Compound 190] | < 1 |
| CC(=O)N[C@@H](C(=O)N1CCC[C@H]1c1ncc(-c2ccc(C#Cc3ccc(-c4cnc([C@@H]5CCCN5C(=O)[C@H](NC(C)=O)c5ccccc5)[nH]4)cc3)cc2)[nH]1)c1ccccc1 [Compound 158] | < 1 |
| CC[C@@H](C(=O)N1CCC[C@H]1c1ncc(-c2ccc(C#Cc3ccc(-c4cnc([C@@H]5CCCN5C(=O)[C@H](NC(=O)OC)c5ccccc5)[nH]4)cc3)cc2)[nH]1)c1ccccc1 [Compound 258] | < 1 |
| CC(C)[C@@H](NC(=O)OC(C)(C)C)C(=O)N1CCC[C@H]1c1ncc(C#Cc2ccc(C#Cc3cnc([C@@H]4CCCN4C(=O)[C@H](NC(=O)OC(C)(C)C)C(C)C)[nH]3)cc2)[nH]1 [Compound 301] | > 1000 |
| CNC(=O)N[C@@H](C(=O)N1CCC[C@H]1c1ncc(-c2ccc(C#Cc3ccc(-c4cnc([C@@H]5CCCN5C(=O)[C@H](NC(=O)NC)c5ccccc5)[nH]4)cc3)cc2)[nH]1)c1ccccc1 [Compound 162] | < 1 |
| COC(=O)N[C@H](C(=O)N1CCC[C@H]1c1nc2ccc3cc(C#Cc4ccc(-c5cnc([C@@H]6CCCN6C(=O)[C@@H](NC(=O)OC)C6CCOCC6)[nH]5)cc4F)ccc3c2[nH]1)C(C)C [Compound 1099] | < 1 |
| O=C(N[C@@H](C(=O)N1CCC[C@H]1c1cc(-c2ccc(C#Cc3ccc(-c4cnc([C@@H]5CCCN5C(=O)[C@H](NC(=O)C5CC5)c5ccccc5)[nH]4)cc3)cc2)n[nH]1)c1ccccc1)C1CC1 [Compound 212] | < 1 |
| CN1CCN(C(=O)N[C@@H](C(=O)N2CCC[C@H]2c2cc(-c3ccc(C#Cc4ccc(-c5cnc([C@@H]6CCCN6C(=O)[C@H](NC(=O)N6CCN(C)CC6)c6ccccc6)[nH]5)cc4)cc3)n[nH]2)c2ccccc2)CC1 [Compound 213] | < 1 |
| O=C(NC[C@@H]1CCCN1C(=O)[C@H](NC(=O)C1CC1)c1ccccc1)c1ccc(C#Cc2ccc(-c3cnc([C@@H]4CCCN4C(=O)[C@H](NC(=O)C4CC4)c4ccccc4)[nH]3)cc2)cc1 [Compound 193] | < 1 |
| COC(=O)N[C@H](CC(=O)N1CCC[C@H]1c1ncc(-c2ccc(C#Cc3ccc4nc([C@@H]5CCCN5C(=O)C[C@@H](NC(=O)OC)C(C)C)[nH]c4c3)cc2)[nH]1)C(C)C [Compound 1065] | 10 to 999 |
| C[C@H](NC(=O)[C@@H]1CCCN1C(=O)[C@H](NC(=O)OC(C)(C)C)c1ccccc1)c1ccc(C#Cc2ccc(-c3cnc([C@@H]4CCCN4C(=O)[C@H](NC(=O)OC(C)(C)C)c4ccccc4)[nH]3)cc2)cc1 [Compound 169] | 1 to 9.9 |
| COC(=O)N[C@@H](C(=O)N1CCC[C@H]1c1ncc(-c2ccc(C#Cc3ccc(-c4cnc([C@@H]5CCCN5C(=O)C5CCCN5C)[nH]4)cc3)cc2)[nH]1)c1ccccc1 (stereo partly drawn) [Compound 202] | < 1 |
| COC(=O)N[C@H](C(=O)N1CCC[C@H]1c1nc2c([nH]1)-c1ccc(C#Cc3ccc(-c4cnc([C@@H]5CCCN5C(=O)[C@@H](NC(=O)OC)C5CCOCC5)[nH]4)cc3)cc1CC2)C(C)C [Compound 1091] | < 1 |
| COC(=O)N[C@@H](C(=O)N1CCC[C@H]1c1ncc(-c2ccc(C#Cc3ccc(C(=O)NC[C@@H]4CCCN4C(=O)[C@@H](c4ccccc4)N(C)C)cc3)cc2)[nH]1)c1ccccc1 [Compound 234] | < 1 |
| CNC(=O)N[C@@H](C(=O)N1CCC[C@H]1c1ncc(-c2ccc(C#Cc3ccc(-c4cnc([C@@H]5CCCN5C(=O)[C@H](NC(=O)C5CC5)c5ccccc5)[nH]4)cc3)cc2)[nH]1)c1ccccc1 [Compound 997] | < 1 |
| COC(=O)N[C@@H](C(=O)N[C@@H](C)c1ncc(-c2ccc(C#Cc3ccc(-c4cnc([C@@H]5CCCN5C(=O)[C@H](NC(=O)OC)C(C)C)[nH]4)cc3)cc2)[nH]1)C(C)C [Compound 290] | > 1000 |
| COC(=O)N[C@@H](C(=O)N1CCC[C@H]1c1ncc(C#Cc2ccc(-c3ccc(-c4cnc([C@@H]5CCCN5C(=O)[C@H](NC(=O)C5CC5)c5ccccc5)[nH]4)cc3)cc2)[nH]1)c1ccccc1 [Compound 754] | < 1 |
